Reference: patent US8362074B2, “Synergistic insecticidal compositions” (priority 1999, dated 2013)

How the values were obtained:
[1] = tested on: adult male German cockroaches (Blattella germanica); assay: Treated dog chow bait test on adult male German cockroaches; format: in vivo; settings: 1.00 % active ingredient
Description: In this evaluation, adult male German cockroaches (Blattella germanica) are used. For each test, a 4.0 g portion of ground Purina Dog Chow (Hi-Pro Glo®) is treated with an acetone solution of test compound alone or in combination with a second test compound. After treatment, the acetone is evaporated and the treated dog chow is placed in a ¾ oz plastic cup which is placed in a harborage made of folded sheets of blotter paper placed in a plastic box (16″ L×11″ W×6″ H). The plastic box (test arena) is also fitted with a 1 oz narrow mouth bottle with 2 dental wicks inserted at the mouth. A control box is prepared in the same manner using ground dog chow which has been treated with reagent grade acetone. Each treatment is replicated three times. Into each test arena are placed 20 healthy adult male cockroaches which have been reared in an insectary. The test arenas are then stored at 76° F. and mortality is determined daily by visual examination.

[2] = tested on: Helicoverpa zea (cotton bollworm) larvae; assay: Treated artificial diet surface test on cotton bollworm larvae; format: in vivo
Description: In this evaluation, Helicoverpa zea (cotton bollworm) larvae are obtained from a laboratory colony. Test compounds are dissolved in 1:1 v/v acetone/water. Plastic bioassay trays (C-D International, Pitman, N.J.) are used as test arenas. Each tray contains 32 open-faced wells, 4.0×4.0×2.5 cm. A portion (5 ml) of a wheat germ-soybean flour-based artificial diet (Southland Products, Lake Village, Ark.) is poured into each well. After the diet hardened, 0.4 ml of test solution is pipetted onto the diet surface in each well. Test solutions are evenly spread over surfaces of diet by picking up the tray and gently tilting it from side to side. Trays are then held in a vented area for about 2 h, until water is no longer pooled on diet surfaces. A single 4-day-old H. zea larva is then placed on the surface of diet in each well. After larval infestation, each well is covered with an adhesive, vented, clear plastic sheet.
All test arenas are held under constant fluorescent light and a temperature of about 27° C. for duration of the assay. Larval mortality is determined at 2, 3, 4 and 7 days after treatment. […] A total of 32 insects were tested for each treatment.

CC1(C)CNC(=NN=C(/C=C/c2ccc(C(F)(F)F)cc2)/C=C/c2ccc(C(F)(F)F)cc2)NC1 [Compound B, hydramethylnon]
mortality at 1 % strength ([1]; 72 h, 3 days after treatment): 0%
mortality at 1 % strength ([1]; 96 h, 4 days after treatment): 5%
mortality at 1 % strength ([1]; 120 h, 5 days after treatment): 28.3%
mortality at 1 % strength ([1]; 144 h, 6 days after treatment): 71.7%
mortality at 1 % strength ([1]; 168 h, 7 days after treatment): 90%
mortality at 1 % strength ([1]; 192 h, 8 days after treatment): 93.3%
% Mortality ([2]; 100 OB/ml, 2 days after treatment): 3.1%
% Mortality ([2]; 100 OB/ml, 3 days after treatment): 3.1%
% Mortality ([2]; 100 OB/ml, 4 days after treatment): 3.1%
% Mortality ([2]; 100 OB/ml, 7 days after treatment): 15.6%
% Mortality ([2]; 500 OB/ml, 2 days after treatment): 0.0%
% Mortality ([2]; 500 OB/ml, 3 days after treatment): 9.4%
% Mortality ([2]; 500 OB/ml, 4 days after treatment): 18.8%
% Mortality ([2]; 500 OB/ml, 7 days after treatment): 40.6%
% Mortality ([2]; 1000 OB/ml, 2 days after treatment): 3.1%
% Mortality ([2]; 1000 OB/ml, 3 days after treatment): 34.4%
% Mortality ([2]; 1000 OB/ml, 4 days after treatment): 50.5%
% Mortality ([2]; 1000 OB/ml, 7 days after treatment): 62.5%
